Activity calls are given as the source filed them.
Experiments:
Type in all cases: functional
[1] = cytotoxicity toward DRD oncogenic fibroblasts, dose response, cell-based, non-viral oncogenic, luminescence (AID 1934); settings: Homo sapiens
Hexokinase HKDC1 = target: T1, Hexokinase HKDC1 (Homo sapiens, UniProt Q2TB90); assay: HKDC1 hexokinase inhibitors, dose response, biochemical, W721R variant (AID 504729)
T1 sequence (Q2TB90 whole entry): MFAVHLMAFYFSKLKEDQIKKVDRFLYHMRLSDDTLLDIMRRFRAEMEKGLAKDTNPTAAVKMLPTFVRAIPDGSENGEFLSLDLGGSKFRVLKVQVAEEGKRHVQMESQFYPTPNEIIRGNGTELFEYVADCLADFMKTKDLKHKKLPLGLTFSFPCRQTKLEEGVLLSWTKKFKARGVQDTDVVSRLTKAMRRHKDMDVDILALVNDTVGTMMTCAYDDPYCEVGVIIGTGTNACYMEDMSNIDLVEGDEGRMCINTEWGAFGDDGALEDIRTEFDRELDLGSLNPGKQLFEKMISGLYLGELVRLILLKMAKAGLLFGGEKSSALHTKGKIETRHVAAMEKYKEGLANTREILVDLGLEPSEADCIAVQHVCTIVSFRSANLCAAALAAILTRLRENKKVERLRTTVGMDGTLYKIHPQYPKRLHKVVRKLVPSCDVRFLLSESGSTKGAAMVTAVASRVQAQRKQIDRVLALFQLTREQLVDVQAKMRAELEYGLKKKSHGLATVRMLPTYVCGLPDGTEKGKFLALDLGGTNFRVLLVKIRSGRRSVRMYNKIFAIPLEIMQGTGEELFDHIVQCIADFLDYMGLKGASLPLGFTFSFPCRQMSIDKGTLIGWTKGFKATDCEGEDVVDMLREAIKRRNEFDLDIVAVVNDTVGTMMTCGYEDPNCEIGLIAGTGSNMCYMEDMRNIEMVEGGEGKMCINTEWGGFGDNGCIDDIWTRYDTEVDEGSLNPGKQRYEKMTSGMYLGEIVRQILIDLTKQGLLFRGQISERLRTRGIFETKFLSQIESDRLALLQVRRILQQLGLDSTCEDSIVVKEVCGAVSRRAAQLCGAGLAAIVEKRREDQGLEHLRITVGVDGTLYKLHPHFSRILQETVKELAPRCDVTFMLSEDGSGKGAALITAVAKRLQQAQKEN

[2] = target: T2, Sentrin-specific protease 7 (Homo sapiens, UniProt Q9BQF6);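 note: Luminescence-based dose-response confirmation of ultra-high-throughput screening hits, measuring inhibition of SENP7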
T2 sequence (Q9BQF6 whole entry): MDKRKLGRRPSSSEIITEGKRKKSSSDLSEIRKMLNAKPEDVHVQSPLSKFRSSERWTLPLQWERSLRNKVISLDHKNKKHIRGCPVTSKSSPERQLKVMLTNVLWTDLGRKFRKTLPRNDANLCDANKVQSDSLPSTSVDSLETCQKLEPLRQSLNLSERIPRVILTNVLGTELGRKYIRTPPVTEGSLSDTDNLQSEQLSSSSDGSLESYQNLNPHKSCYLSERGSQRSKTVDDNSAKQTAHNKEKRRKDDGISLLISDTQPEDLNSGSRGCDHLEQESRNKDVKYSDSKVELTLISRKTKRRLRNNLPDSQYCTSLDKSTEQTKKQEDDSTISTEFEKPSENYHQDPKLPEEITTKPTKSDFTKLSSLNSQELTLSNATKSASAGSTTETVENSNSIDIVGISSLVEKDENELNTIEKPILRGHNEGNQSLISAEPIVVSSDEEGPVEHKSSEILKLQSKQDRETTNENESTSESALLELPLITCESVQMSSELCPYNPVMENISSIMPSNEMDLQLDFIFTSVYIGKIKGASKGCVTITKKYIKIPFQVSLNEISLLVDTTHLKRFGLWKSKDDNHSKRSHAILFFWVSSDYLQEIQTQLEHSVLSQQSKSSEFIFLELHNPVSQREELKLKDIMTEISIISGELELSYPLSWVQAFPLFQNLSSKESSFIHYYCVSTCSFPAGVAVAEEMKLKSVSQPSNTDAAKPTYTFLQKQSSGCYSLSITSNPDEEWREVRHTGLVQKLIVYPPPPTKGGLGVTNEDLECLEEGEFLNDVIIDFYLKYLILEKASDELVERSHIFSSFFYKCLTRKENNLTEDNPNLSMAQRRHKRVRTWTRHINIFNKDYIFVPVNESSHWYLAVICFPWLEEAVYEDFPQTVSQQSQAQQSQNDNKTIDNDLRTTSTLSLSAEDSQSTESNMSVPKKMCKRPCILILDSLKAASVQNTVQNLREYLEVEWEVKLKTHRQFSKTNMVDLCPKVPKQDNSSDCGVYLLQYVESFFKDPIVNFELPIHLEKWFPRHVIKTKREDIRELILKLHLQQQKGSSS

[3] = target: T3, Sentrin-specific protease 6 (Homo sapiens, UniProt Q9GZR1);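 note: Luminescence-based dose-response confirmatory assay of SENP6 inhibition, following up an ultra-high-throughput screen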
T3 sequence (Q9GZR1 whole entry): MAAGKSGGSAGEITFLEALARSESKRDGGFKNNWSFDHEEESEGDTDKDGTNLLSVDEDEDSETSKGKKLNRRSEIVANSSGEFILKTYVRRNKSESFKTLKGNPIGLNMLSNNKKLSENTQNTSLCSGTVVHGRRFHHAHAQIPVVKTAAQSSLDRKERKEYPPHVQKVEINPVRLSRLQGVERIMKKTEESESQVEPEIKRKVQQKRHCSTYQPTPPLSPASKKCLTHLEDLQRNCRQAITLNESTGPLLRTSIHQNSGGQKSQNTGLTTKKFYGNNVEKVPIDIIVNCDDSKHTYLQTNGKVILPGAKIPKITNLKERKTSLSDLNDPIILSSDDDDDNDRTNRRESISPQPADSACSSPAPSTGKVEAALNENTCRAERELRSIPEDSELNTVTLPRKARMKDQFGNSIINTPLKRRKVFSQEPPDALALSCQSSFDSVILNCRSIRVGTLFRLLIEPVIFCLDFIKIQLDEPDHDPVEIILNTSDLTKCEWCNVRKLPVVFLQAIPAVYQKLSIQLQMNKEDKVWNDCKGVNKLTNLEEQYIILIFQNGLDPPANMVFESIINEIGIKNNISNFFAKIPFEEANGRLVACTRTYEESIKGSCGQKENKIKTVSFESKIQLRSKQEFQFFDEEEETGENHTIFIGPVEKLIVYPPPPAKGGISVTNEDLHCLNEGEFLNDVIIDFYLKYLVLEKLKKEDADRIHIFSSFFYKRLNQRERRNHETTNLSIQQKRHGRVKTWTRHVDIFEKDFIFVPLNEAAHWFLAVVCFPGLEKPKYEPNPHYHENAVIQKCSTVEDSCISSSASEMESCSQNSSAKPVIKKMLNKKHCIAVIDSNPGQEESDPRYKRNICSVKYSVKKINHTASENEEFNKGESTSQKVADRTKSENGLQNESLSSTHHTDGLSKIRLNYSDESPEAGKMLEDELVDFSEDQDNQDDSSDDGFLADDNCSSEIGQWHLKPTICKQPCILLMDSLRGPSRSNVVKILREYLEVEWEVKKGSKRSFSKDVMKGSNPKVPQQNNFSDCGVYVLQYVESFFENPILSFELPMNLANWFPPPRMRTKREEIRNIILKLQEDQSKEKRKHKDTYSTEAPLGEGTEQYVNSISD

Structure (SMILES)	EC50 [1]	IC50 (Hexokinase HKDC1)	IC50 [2]	IC50 [3]
Nc1ccc2c(c1)C(=O)C(=O)c1ccccc1-2	4.42 µM (active)	–	–	–
O=C(O)c1ccc(NC2=C/C(=N/S(=O)(=O)c3ccccc3)c3ccccc3C2=O)cc1	–	2.74 µM (active)	2.06 µM (active)	0.743 µM (active)
COC(=O)[C@@H]1[C@@H](C(=O)OC)C2(c3ccccc3-c3ccccc32)N(c2ccc(Cl)cc2)N1C#N	4.84 µM (active)	20.4 µM (inactive)	–	–
COc1ccc(OC)c(Nc2cc3ccccc3c(O)n2)c1	–	–	2.19 µM (active)	< 1.55 µM (active)

From ChEMBL document CHEMBL1201862, “PubChem BioAssay data set” (2004)
